Data set [1] in a line: IM injection of abiraterone acetate formulations in rats. The following applies: vegetable oil solution versus aqueous suspension. Type of data set: in vivo. Here is the method:
Typically, the abiraterone prodrugs of the present disclosure are formulated as a non-aqueous solution or suspension. In some embodiments, the non-aqueous solution or suspension provides higher levels of abiraterone in the plasma for a longer duration, when compared to an aqueous solution or suspension. For example, as detailed herein, IM injections of an aqueous suspension and a vegetable oil solution of the abiraterone acetate prodrug were evaluated in rats. […] Accordingly, in some embodiments, the abiraterone prodrug formulations herein can include an abiraterone prodrug of the present disclosure (e.g., compound of Formula I or II) dissolved or dispersed in a pharmaceutically acceptable carrier. In some embodiments, the pharmaceutically acceptable carrier can be any suitable nonaqueous vehicle suitable for injection, such as those described in U.S. Pharmacopeia. In some embodiments, the pharmaceutically acceptable carrier can be a pharmaceutically acceptable oil, e.g., a vegetable oil, castor oil, corn oil, sesame oil, cottonseed oil, peanut oil, poppy seed oil, tea seed oil, or soybean oil. In some embodiments, the pharmaceutically acceptable oil can be oils (e.g., described herein), suitable for use as vehicles for injection, e.g., meeting the criteria as described in the corresponding U.S. Pharmacopeia monograph. […]

In data set [2] the test system is mineralocorticoids, progesterone and pregnenolone. As to conditions: cited from earlier work.

We go through one molecule from US20250186463A1, “ABIRATERONE DECANOATE PRODRUGS AND USE IN THERAPY” (PROPELLA THERAPEUTICS, INC., priority 2022, published 2025).

Take `CC(=O)O[C@H]1CC[C@@]2(C)C(=CC[C@@H]3[C@@H]2CC[C@]2(C)C(c4cccnc4)=CC[C@@H]32)C1` [abiraterone acetate, (3)-17-(3-Pyridyl)androsta-5, acetate]: the “blood plasma levels and duration of exposure of abiraterone” value in data set [1] is “highest blood plasma levels and the longest duration of exposure”. In data set [2] (oral administration), the “increases in concentrations of mineralocorticoids” value is on record as 80 fold; the “men with signs and symptoms of mineralocorticoid excess (hypertension, hypokalemia, edema)” value is reported as 30%. Also, in data set [2] (oral regimen), the “increases in progesterone and pregnenolone” value was 40 fold.
